Where two headings read alike, the source gives them in different places.
Target: NMDA receptor (NR1 + NR2 subunits) (Rattus norvegicus, UniProt P35439+Q00960)
Test: Two electrode voltage clamp recording from Xenopus laevis oocytes (pH dependence of NMDA antagonism)
Type: cell-based
Protocol: cRNA was synthesized from linearized template cDNA for rat glutamate receptor subunits according to manufacturer specifications (Ambion). Quality of synthesized cRNA was assessed by gel electrophoresis, and quantity was estimated by spectroscopy and gel electrophoresis. Stage V and VI oocytes were surgically removed from the ovaries of large, well-fed and healthy Xenopus laevis anesthetized with 3-amino-benzoic acid ethyl ester (3 gm/l) as previously described. Clusters of isolated oocytes were incubated with 292 U/ml Worthington (Freehold, N.J.) type IV collagenase or 1.3 mg/ml collagenase (Life Technologies, Gaithersburg, Md.; 17018-029) for 2 hr in Ca^2+-free solution comprised of (in mM) 115 NaCl, 2.5 KCl, and 10 HEPES, pH 7.5, with slow agitation to remove the follicular cell layer. Oocytes were then washed extensively in the same solution supplemented with 1.8 mM CaCl2 and maintained in Barth's solution comprised of (in mM): 88 NaCl, 1 KCl, 2.4 NaHCO3, 10 HEPES, 0.82 MgSO4, 0.33 Ca(NO3)2, and 0.91 CaCl2 and supplemented with 100 μg/ml gentamycin, 10 μg/ml streptomycin, and 10 μg/ml penicillin. Oocytes were manually defolliculated and injected within 24 hrs of isolation with 3-5 ng of NR1 subunit cRNA and 7-10 ng of NR2 cRNA subunit in a 50 nl volume, or 5-10 ng of AMPA or kainate receptor cRNAs in a 50 nl volume, and incubated in Barth's solution at 18° C. for 1-7 d. Glass injection pipettes had tip sizes ranging from 10-20 microns, and were backfilled with mineral oil.
Two electrode voltage-clamp recordings were made 2-7 days post-injection as previously described. Oocytes were placed in a dual-track plexiglass recording chamber with a single perfusion line that splits in a Y-configuration to perfuse two oocytes. Dual recordings were made at room temperature (23° C.) using two Warner OC725B two-electrode voltage clamp amplifiers, arranged as recommended by the manufacturer. Glass microelectrodes (1-10 Megaohms) were filled with 300 mM KCl (voltage electrode) or 3 M KCl (current electrode). The bath clamps communicated across silver chloride wires placed into each side of the recording chamber, both of which were assumed to be at a reference potential of 0 mV. Oocytes were perfused with a solution comprised of (in mM) 90 NaCl, 1 KCl, 10 HEPES, and 0.5 BaCl2; pH was adjusted by addition of 1-3 M NaOH of HCl. Oocytes were recorded under voltage clamp at −40 mV. Final concentrations for control application of glutamate (50 μM) plus glycine (30 μM) were achieved by adding appropriate volumes from 100 and 30 mM stock solutions, respectively. In addition, 10 μM final EDTA was obtained by adding a 1:1000 dilution of 10 mM EDTA, in order to chelate contaminant divalent ions such as Zn^2+. Concentration-response curves for experimental compounds were obtained by applying in successive fashion maximal glutamate/glycine, followed by glutamate/glycine plus variable concentrations of experimental compounds. Dose response curves consisting of 4 to 8 concentrations were obtained in this manner. The baseline leak current at −40 mV was measured before and after recording, and the full recording linearly corrected for any change in leak current. Oocytes with glutamate-evoked responses smaller than 50 nA were not included in the analysis. The level of inhibition by applied experimental compounds was expressed as a percent of the initial glutamate response, and averaged together across oocytes from a single frog. Each experiment consisted of recordings from 3 to 10 oocytes obtained from a single frog. Results from 3-6 experiments were pooled, and the average percent responses at antagonist concentrations were fitted by the equation,
Percent Response=(100−minimum)/(1+([conc]/IC50)^nH)+minimum […]

[1] = pH 6.9, Table 19, read-out: IC50 at pH 6.9
[2] = pH 7.6, Table 19, read-out: IC50 at pH 7.6
[3] = pH 6.9, Table 20, read-out: IC50 at pH 6.9
[4] = pH 7.6, Table 20, read-out: IC50 at pH 7.6
[5] = pH 6.9, Table 21, read-out: IC50 at pH 6.9
[6] = pH 7.6, Table 21, read-out: IC50 at pH 7.6

NMDA receptor (NR1 + NR2 subunits), sequence (Q00960 27-1482, other chains not shown): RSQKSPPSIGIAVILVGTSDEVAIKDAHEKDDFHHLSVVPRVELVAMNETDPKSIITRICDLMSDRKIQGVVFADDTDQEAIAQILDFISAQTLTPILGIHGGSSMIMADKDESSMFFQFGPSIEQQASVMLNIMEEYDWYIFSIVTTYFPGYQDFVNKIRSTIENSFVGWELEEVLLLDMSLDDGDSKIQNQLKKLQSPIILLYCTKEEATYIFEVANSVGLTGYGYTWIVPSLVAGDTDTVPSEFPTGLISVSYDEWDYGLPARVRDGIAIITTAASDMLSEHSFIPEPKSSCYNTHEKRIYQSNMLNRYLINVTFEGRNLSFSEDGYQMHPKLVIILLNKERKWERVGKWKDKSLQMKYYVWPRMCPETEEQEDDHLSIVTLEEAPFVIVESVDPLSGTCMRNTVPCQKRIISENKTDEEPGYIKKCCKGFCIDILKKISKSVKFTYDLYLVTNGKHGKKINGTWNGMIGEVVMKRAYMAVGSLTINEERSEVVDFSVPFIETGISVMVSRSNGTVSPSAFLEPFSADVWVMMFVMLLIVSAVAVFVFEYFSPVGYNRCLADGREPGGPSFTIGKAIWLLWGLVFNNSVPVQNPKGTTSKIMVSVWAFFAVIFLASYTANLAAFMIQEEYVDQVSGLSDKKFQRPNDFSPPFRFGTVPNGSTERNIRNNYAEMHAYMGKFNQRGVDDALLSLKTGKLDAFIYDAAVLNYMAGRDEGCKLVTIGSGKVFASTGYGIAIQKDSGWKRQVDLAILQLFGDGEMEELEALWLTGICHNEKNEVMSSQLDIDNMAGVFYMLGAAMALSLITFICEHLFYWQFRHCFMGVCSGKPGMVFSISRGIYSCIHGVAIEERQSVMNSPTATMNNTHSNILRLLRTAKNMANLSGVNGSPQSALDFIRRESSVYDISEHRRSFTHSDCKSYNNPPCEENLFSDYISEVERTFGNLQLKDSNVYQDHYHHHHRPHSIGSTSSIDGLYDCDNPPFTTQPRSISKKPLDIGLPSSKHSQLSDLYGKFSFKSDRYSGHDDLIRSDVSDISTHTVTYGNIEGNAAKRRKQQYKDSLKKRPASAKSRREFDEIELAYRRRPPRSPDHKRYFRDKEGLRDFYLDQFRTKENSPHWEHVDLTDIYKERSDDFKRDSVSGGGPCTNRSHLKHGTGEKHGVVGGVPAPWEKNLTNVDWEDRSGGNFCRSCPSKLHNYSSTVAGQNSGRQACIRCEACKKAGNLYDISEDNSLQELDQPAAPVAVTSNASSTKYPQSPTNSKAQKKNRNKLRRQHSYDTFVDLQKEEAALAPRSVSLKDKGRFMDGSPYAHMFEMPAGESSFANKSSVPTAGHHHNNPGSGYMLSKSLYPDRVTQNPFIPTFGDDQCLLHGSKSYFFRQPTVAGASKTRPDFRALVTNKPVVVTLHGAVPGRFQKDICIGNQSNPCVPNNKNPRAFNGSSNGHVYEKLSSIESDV

Row | SMILES | IC50 [1] [nM] | IC50 [2] [nM] | other results
1 | Oc1ccc(OCC(O)CN2CCN(c3ccc(C(F)(F)F)cc3)CC2)cc1 (centres unmarked) | 113 | 448 | –
2 | Oc1ccc(OCC(O)CN2CCN(c3ccc(-c4ccccc4)cc3)CC2)cc1 (centres unmarked) | 6950 | 191000 | –
3 | Oc1ccc(OC[C@H](O)CN2CCN(c3ccccc3F)CC2)cc1 | 541 | 1730 | –
4 | N#Cc1ccccc1N1CCN(C[C@@H](O)COc2ccc(O)cc2)CC1 | 3210 | 8330 | –
5 | Oc1ccc(OC[C@H](O)CN2CCN(c3cccc(Cl)c3)CC2)cc1 | 257 | 4800 | –
6 | Cc1cccc(N2CCN(C[C@@H](O)COc3ccc(O)cc3)CC2)c1 | 341 | 1740 | –
7 | Oc1ccc(OCC(O)CN2CCN(c3cccc(C(F)(F)F)c3)CC2)cc1 (centres unmarked) | 386 | 3790 | –
8 | Oc1ccc(OCC(O)CNCCc2ccc(Cl)c(Cl)c2)cc1 (centres unmarked) | 197 | 501 | –
9 | CCCCN(CCc1ccc(Cl)c(Cl)c1)CC(O)COc1ccc(O)cc1 (centres unmarked) | 585 | 6500 | –
10 | Oc1ccc(OC[C@H](O)CN2CCC(O)(c3ccccc3)CC2)cc1 | 191 | 298 | –
11 | NC(=O)Nc1ccc(OCCCN2CCN(c3ccc(F)c(F)c3)CC2)cc1 | – | – | IC50 [3]: 82 nM; IC50 [4]: 696 nM
12 | C=C(COc1ccc(NC(N)=O)cc1)CN1CCN(c2ccc(F)c(F)c2)CC1 | – | – | IC50 [3]: 557 nM; IC50 [4]: 10400 nM
13 | NC(=O)Nc1ccc(OCCCN2CCN(c3ccc(F)cc3)CC2)cc1 | – | – | IC50 [3]: 117 nM; IC50 [4]: 625 nM
14 | NC(=O)Nc1ccc(OC[C@H](O)CN2CCN(c3ccc(Cl)cc3)CC2)cc1 | – | – | IC50 [3]: 19 nM; IC50 [4]: 60 nM
15 | CCNC(=O)Nc1ccc(OCCCN2CCN(c3ccc(F)cc3)CC2)cc1 | – | – | IC50 [3]: 3030 nM; IC50 [4]: 15700 nM
16 | COC(=O)Nc1ccc(OCCCN2CCN(c3ccc(F)cc3)CC2)cc1 | – | – | IC50 [3]: 1540 nM; IC50 [4]: 16200 nM
17 | CS(=O)(=O)Nc1ccc(OCC(=O)NCCNc2ccc(Cl)c(Cl)c2)cc1 | – | – | IC50 [5]: 13 nM; IC50 [6]: 58 nM
18 | CS(=O)(=O)Nc1ccc(OCCNCCNc2ccc(Cl)c(Cl)c2)cc1 | – | – | IC50 [5]: 14 nM; IC50 [6]: 36 nM
19 | CS(=O)(=O)Nc1ccc(CCC(=O)N2CCN(c3ccc(Cl)c(Cl)c3)CC2)cc1 | – | – | IC50 [5]: 670 nM; IC50 [6]: 5330 nM
20 | CS(=O)(=O)Nc1ccc(CCC(=O)N2CCN(c3ccc(F)c(F)c3)CC2)cc1 | – | – | IC50 [5]: 2200 nM; IC50 [6]: 8400 nM
21 | CS(=O)(=O)Nc1ccc(CCCN2CCN(c3ccc(Cl)c(Cl)c3)CC2)cc1 | – | – | IC50 [5]: 230 nM; IC50 [6]: 2730 nM
22 | CS(=O)(=O)Nc1ccc(OCC(=O)N2CCN(c3ccc(Cl)c(Cl)c3)CC2)cc1 | – | – | IC50 [5]: 40 nM; IC50 [6]: 129 nM
23 | O=C(COc1ccc2[nH]c(=O)oc2c1)N1CCN(c2ccc(F)c(F)c2)CC1 | – | – | IC50 [5]: 307 nM; IC50 [6]: 467 nM
24 | O=C(COc1ccc2[nH]c(=O)oc2c1)N1CCN(c2ccc(Cl)cc2)CC1 | – | – | IC50 [5]: 189 nM; IC50 [6]: 243 nM

Second part, led by results:

Row | IC50 [1] [nM] | IC50 [2] [nM] | SMILES | other results
25 | 529 | 3560 | Oc1ccc(OC[C@H](O)CN2CCN(c3ccc(F)cc3F)CC2)cc1 | –
26 | 978 | 4390 | Oc1ccc(OCC(O)CN2CCN(c3ccccc3Cl)CC2)cc1 (centres unmarked) | –
27 | 430 | 3930 | Cc1ccccc1N1CCN(C[C@@H](O)COc2ccc(O)cc2)CC1 | –
28 | 217 | 476 | Oc1ccc(OCC(O)CN2CCN(c3ccccc3)CC2)cc1 (centres unmarked) | –
29 | 211 | 598 | Oc1ccc(OC[C@H](O)CN2CCN(c3cccc(F)c3)CC2)cc1 | –
30 | 116 | 330 | Oc1ccc(OCC(O)CNCCc2ccc(Cl)c(Cl)c2)c(F)c1 (centres unmarked) | –
31 | 114 | 549 | Oc1ccc(OCC(O)CNCCc2ccc(Cl)c(Cl)c2)cc1F (centres unmarked) | –

Reference: patent US20110160223A1, “NMDA Receptor Antagonists for the Treatment of Neuropsychiatric Disorders” (priority 2008, published 2011)
